Assay results from PubChem BioAssay (NCI).
Values joined by “and” are separate entries in the source; they are usually repeats but may differ in a detail not shown here. Equal values may be shown once.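 Assay format: 96-well plates, 48-hour exposure. GI50 = concentration required for 50% inhibition of growth. TGI: total growth inhibition.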

What was measured:
Assay in all cases: inhibition of tumour cell growth, NCI panel, 48 h
NCI-H226 lung = test system: NCI-H226 lung
MOLT-4 leukemia = test system: MOLT-4 leukemia
HCT-116 colon = test system: HCT-116 colon
LOX IMVI melanoma = test system: LOX IMVI melanoma
OVCAR-5 ovarian = test system: OVCAR-5 ovarian
BT-549 breast = test system: BT-549 breast
PC-3 prostate = test system: PC-3 prostate
OVCAR-8 ovarian = test system: OVCAR-8 ovarian
SNB-19 CNS = test system: SNB-19 CNS
EKVX NSCLC = test system: EKVX NSCLC

Structure (SMILES) | TGI (NCI-H226 lung) | TGI (MOLT-4 leukemia) | TGI (HCT-116 colon) | TGI (LOX IMVI melanoma) | TGI (OVCAR-5 ovarian) | TGI (BT-549 breast) | TGI (PC-3 prostate) | TGI (OVCAR-8 ovarian) | TGI (SNB-19 CNS) | TGI (EKVX NSCLC) | GI50 (LOX IMVI melanoma) | GI50 (OVCAR-5 ovarian) | GI50 (BT-549 breast) | GI50 (PC-3 prostate) | GI50 (OVCAR-8 ovarian) | GI50 (SNB-19 CNS) | GI50 (EKVX NSCLC) | GI50 (NCI-H226 lung) [µM] | GI50 (MOLT-4 leukemia) [µM] | GI50 (HCT-116 colon) [µM]
COc1cc2c(cc1OC)C13CCN4C=C5CCOC6CC(=O)N2C1C6C5CC43 (centres undefined) | > 100 µM | > 100 µM | > 100 µM | > 100 µM | > 100 µM | > 100 µM | > 100 µM | > 100 µM | > 100 µM | > 100 µM | – | – | – | – | – | – | – | – | – | –
COc1cccc2c1C(=O)c1c(O)c3c(c(O)c1C2=O)CC(O)(C(C)=O)CC3OC1CC(N)C(O)C(C)O1 (centres undefined) | 0.155 µg/mL | 0.019 µg/mL | 2.06 µg/mL | 1.57 µg/mL | 3.46 µg/mL | 0.459 µg/mL | 0.545 µg/mL | 0.393 µg/mL | 2.11 µg/mL | 2.66 µg/mL | 0.0166 µg/mL | 0.0674 µg/mL | 0.0458 µg/mL | 0.0336 µg/mL | 0.0205 µg/mL | 0.0198 µg/mL | 0.191 µg/mL | – | – | –
Nc1ncnc2c1ncn2C1OC(COP(=O)(O)CP(=O)(O)O)C(O)C1O (centres undefined) | > 100 µM | > 100 µM | > 100 µM | > 100 µM | > 100 µM | > 100 µM | > 100 µM | > 100 µM | > 100 µM | > 100 µM | – | – | – | – | – | – | – | – | – | –
Cn1cc(-c2nonc2-c2c[nH]c3ccccc23)c2ccccc21 | 24.3 µM | 14.8 µM | 10.5 µM | 13 µM | 16.4 µM | 7.78 µM | 17.2 µM | 14.7 µM | 10.9 µM | 16 µM | 0.65 µM | 1.24 µM | 0.588 µM | 0.488 µM | 0.545 µM | 0.385 µM | 0.567 µM | 1.43 | 0.499 | 0.404
Cc1cc(C)nc(NC(N)=NCCc2ccccc2)n1 | > 100 µM | > 100 µM | > 100 µM | 44.3 µM | > 100 µM | > 100 µM | > 100 µM | 34.8 µM | > 100 µM | 89.9 µM | 2.03 µM | 9.81 µM | 3.92 µM | 3.88 µM | 3.69 µM | 4.55 µM | 3.66 µM | 5.06 | 6.01 | 2.78
COC(=O)[C@@H](NC(=O)NC(=O)NC(=O)CI)C(C)C | 38.4 µM | 7.05 µM | 24.6 µM | 3.33 µM | 29.7 µM | 23.7 µM | 30.7 µM | 41.4 µM | 37.7 µM | 31.4 µM | 1.69 µM | 13.2 µM | 11.5 µM | 16.3 µM | 18.8 µM | 18.8 µM | 17.2 µM | 16.2 | 2.58 | 12.2
CC1=NN(C(=O)c2ccccc2O)C(=O)/C1=C/c1ccc([N+](=O)[O-])cc1 | 7.93 µM and 25.1 µM | > 100 µM | – | > 40.9 µM | > 100 µM | > 100 µM | > 100 µM | > 100 µM | > 100 µM | > 100 µM | 0.854 µM | 2.62 µM | 0.127 µM | 0.371 µM | 1.44 µM | 0.464 µM | 2.68 µM | 0.23 | 0.35 | 0.328
Cc1ccc(C(=O)N(CCCN)[C@@H](c2nc3cc(Cl)ccc3c(=O)n2Cc2ccccc2)C(C)C)cc1 | 2.25 µM and 2.5 µM | 3.87 µM and 1.45 µM | 1.41 µM and 1.26 µM | 1.81 µM and 1.52 µM | 2.02 µM and 1.74 µM | 2.94 µM and 1.67 µM | 2.32 µM and 1.76 µM | 1.52 µM and 2.11 µM | 2.12 µM and 1.9 µM | 2.22 µM and 1.64 µM | < 0.01 µM | < 0.01 µM | 0.043 µM and 0.0103 µM | < 0.01 µM | < 0.01 µM | < 0.01 µM | < 0.01 µM | 0.325 | < 0.01 | < 0.01
Nc1ccn(C2OC(CO)C(O)C2F)c(=O)n1 (centres undefined) | > 5000 µM | – | > 5000 µM | > 5000 µM | > 5000 µM | > 5000 µM | > 5000 µM | – | > 5000 µM | > 5000 µM | > 5000 µM | > 5000 µM | > 5000 µM | > 5000 µM | 57.1 µM | 19.5 µM | > 5000 µM | > 5000 | 2.98 | > 5000
CN(C)CCCOc1ccccc1NC1=C(Cl)C(=O)C(Nc2ccccc2OCCCN(C)C)=C(Cl)C1=O | 4.22 µM | 0.578 µM | 0.356 µM | 0.355 µM | 2.84 µM | 2.99 µM | 2.19 µM | 0.9 µM | 3.02 µM | 1.97 µM | 0.18 µM | 1.4 µM | 1.62 µM | 0.696 µM | 0.301 µM | 1.57 µM | 0.693 µM | 1.98 | 0.223 | 0.183
